Assay results from patent US9447069B2, “ROR modulators and their uses” (INNOV17 LLC, priority 2012, dated 2016).
Where two headings read alike, the source gives them in different places.

Key:
RORα LBD = molecular target: T1, RORα LBD (Homo sapiens, UniProt P35398); test: TR-FRET D22 co-activator displacement from RORα LBD; format: biochemical
T1 construct: purified GST-tagged (i) RORγ LBD or (ii) RORα LBD; purchased Life Technologies
T1 sequence (P35398 272-510 limits assumed): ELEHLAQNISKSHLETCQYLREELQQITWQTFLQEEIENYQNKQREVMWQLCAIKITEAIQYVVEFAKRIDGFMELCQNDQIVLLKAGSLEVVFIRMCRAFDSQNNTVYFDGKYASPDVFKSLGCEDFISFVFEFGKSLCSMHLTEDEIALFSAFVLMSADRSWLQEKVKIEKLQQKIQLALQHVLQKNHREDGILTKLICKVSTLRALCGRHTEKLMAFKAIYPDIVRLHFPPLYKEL
Source text: (§1) The Time-Resolved Fluorescence Resonance Energy Transfer (TR-FRET) assay kit (Life Technologies) was used to measure compound efficacy to disrupt or enhance ligand-mediated interaction of the co-activator and co-repressor peptides with the purified GST-tagged (i) RORγ LBD or (ii) RORα LBD. The RORγ LBD and RORα LBD each have a basal level of interaction with the co-activator D22 or co-repressor NCoR1-D2 in the absence of ligand, thus it is possible to identify compounds that inhibit or induce RORγ and/or RORα co-activator/co-repressor interactions, thus determining RORα, RORγ, or RORα/RORγ compound selectivity. The assay was performed as per manufacturer's instructions and TR-FRET was assessed 2 and 20 hours post-assay initiation. Compounds were identified to (i) have no impact on either co-activator displacement or […] from the assessed LBD (ii) promote co-activator displacement from the assessed LBD (iii) promote co-repressor recruitment to the assessed LBD or (iv) concurrently promote co-activator displacement from the assessed LBD and co-repressor recruitment to the assessed LBD.

RORγ LBD [1] = molecular target: T2, RORγ LBD (Homo sapiens, UniProt P51449); test: TR-FRET D22 co-activator displacement from RORγ LBD; format: biochemical; parameters: purified GST-tagged (i) RORγ LBD or (ii) RORα LBD; purchased Life Technologies
T2 sequence (P51449 269-508 limits assumed): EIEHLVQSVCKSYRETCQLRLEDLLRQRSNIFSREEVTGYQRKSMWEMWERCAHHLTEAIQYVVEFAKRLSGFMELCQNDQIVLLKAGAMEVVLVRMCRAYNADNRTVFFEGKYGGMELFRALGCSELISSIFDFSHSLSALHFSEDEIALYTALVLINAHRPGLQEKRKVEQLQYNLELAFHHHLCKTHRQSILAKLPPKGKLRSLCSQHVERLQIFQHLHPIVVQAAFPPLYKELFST
Source text: as §1

IL-17A = test: TH17 cytokine inhibition measured by ELISA (IL-17A); format: cell-based; settings: 120 h; human TH17 cells, 5 days differentiation, ELISA of supernatants, 0.1% DMSO
Experimental: (§2) Peripheral blood mononuclear cells (PBMCs) were sourced from freshly prepared leukocyte enriched plasma (buffy coat) from healthy volunteers from which PBMCs were isolated by density gradient centrifugation using Ficoll-Paque™ PLUS (GE Healthcare). Naïve CD4+ T cells were isolated using the Naïve CD4+ T cell Isolation Kit II (Miltenyi Biotec) as per manufacturer's instructions. CD4+ T cells were plated at 5×10^4 cells/well in 96 well plates pre-coated with immobilized human (h)-αCD3 antibody (eBioscience) then differentiated to TH17 cells using h-αCD28, h-αIFN-γ, h-αIL-4, h-IL-6, h-IL-23, h-IL-1β, h-TGF-β1 (eBioscience) and maintained in a cell culture incubator at 37° C. with 5% CO2 in TexMACS Medium (Miltenyi Biotec) supplemented with 1% Penicillin/Streptomycin (Lonza) over 5 days.
Human CD4+ T cells were differentiated to TH17 cells as described in the presence or absence of various concentrations of compounds in a final concentration of 0.1% DMSO in TexMACS medium. Supernatants were collected and stored at −20° C. until they were to be assayed for IL-17A, IL-17F, IL-17AF, IL-21 and/or IL-22 levels as determined by Ready-Set-Go ELISA kits (eBioscience) as per manufacturer's instructions. Endpoint absorbance was read at 450 nm and 570 nm according to manufacturer's instructions (eBioscience) using a microplate reader (Perkin Elmer). The percentage of cytokine inhibition was calculated with reference to DMSO treated cells and the IC50s were determined by GraphPad Prism software and presented in the table below.

RORγ LBD [2] = molecular target: T2, RORγ LBD; test: TR-FRET NCoR1-D2 co-repressor recruitment to RORγ LBD; format: biochemical; parameters: purified GST-tagged (i) RORγ LBD or (ii) RORα LBD; purchased Life Technologies
Source text: as §1

IL-21 = test: Real-Time qRT-PCR gene expression in TH17 cells (IL-21); format: cell-based, human; parameters: key: A: No change in gene expression observed relative to DMSO treated Th17 cells; B: Decreased gene expression observed relative to DMSO treated Th17 cells; C: Increased gene expression observed relative to DMSO treated Th17 cells; settings: normalized to six reference genes
Experimental: as §2
RNA was isolated from TH17 cells and cDNA was synthesized using the Verso cDNA kit (Thermo Scientific) as per manufacturer's instructions. IL-17A, IL-17F, IL-21, IL-22, G-CSF, IL-23R and FOXP3 gene expression were determined for compound treated and untreated TH17 cell samples using Solaris qPCR Gene expression assays (Thermo Scientific) with an iCycler iQ Real-Time PCR Detection System (Bio-Rad). Individual gene expression was normalized to a panel of six reference genes (ACTB, TBP, HPRT1, PGK1, TFRC and PPIA) (Thermo Scientific) and analyzed by REST 2009 (Qiagen) in accordance to MIQE guidelines (Bustin et al. (2009) Clin. Chem, 55:611-622). The effects of compounds on TH17 cytokine gene expression are presented as fold change in mRNA levels of compound treated TH17 cells relative to DMSO treated cells in the table below.

RORγ LBD [3] = molecular target: T2, RORγ LBD; test: RORγ LBD binding (Human RORγ Assay System, INDIGO Biosciences); parameters: purchased INDIGO Biosciences Inc; settings: 0.5% DMSO
Experimental: Compound binding to the human RORγ LBD was assessed using the Human RORγ Assay System (INDIGO Biosciences Inc.) as per manufacturer's instructions.

[4] = TR-FRET assessed 2 hr post-assay initiation, read-out: RORα EC50 D22 co-activator displacement, 2 hr
[5] = TR-FRET assessed 20 hr post-assay initiation, read-out: RORα EC50 D22 co-activator displacement, 20 hr
[6] = TR-FRET assessed 2 hr post-assay initiation, read-out: RORγ EC50 D22 co-activator displacement, 2 hr
[7] = TR-FRET assessed 20 hr post-assay initiation, read-out: RORγ EC50 D22 co-activator displacement, 20 hr
[8] = TR-FRET assessed 2 hr post-assay initiation, read-out: RORγ EC50 NCoR1-D2 co-repressor recruitment, 2 hr
[9] = TR-FRET assessed 20 hr post-assay initiation, read-out: RORγ EC50 NCoR1-D2 co-repressor recruitment, 20 hr

Compound | EC50 (RORα LBD; [4]) | EC50 (RORα LBD; [5]) | EC50 (RORγ LBD [1]; [6]) | EC50 (RORγ LBD [1]; [7]) | IC50 (IL-17A) | EC50 (RORγ LBD [2]; [8]) | EC50 (RORγ LBD [2]; [9]) | IC50 (RORγ LBD [3]) | Fold change in mRNA levels of compound treated TH17 cells relative to DMSO treated cells, IL-21 (IL-21)
OC(c1ccc(CN2CCCc3cc(-c4cn[nH]c4)ccc32)cc1)(C(F)(F)F)C(F)(F)F [Example 2, 2-(4-((6-(1H-pyrazol-4-yl)-3,4-dihydroquinolin-1(2H)-yl)methyl)phenyl)-1,1,1,3,3,3-hexafluoropropan-2-ol] | < 30 µM | < 30 µM | < 30 µM | < 30 µM | < 10 µM | < 30 µM | < 30 µM | > 10 µM | B
Cc1cc(-c2ccc3c(c2)CCCN3Cc2ccc(C(O)(C(F)(F)F)C(F)(F)F)cc2)[nH]n1 [Example 1, 1,1,1,3,3,3-hexafluoro-2-(4-((6-(3-methyl-1H-pyrazol-5-yl)-3,4-dihydroquinolin-1(2H)-yl)methyl)phenyl)propan-2-ol] | > 30 µM | < 30 µM | < 30 µM | < 30 µM | < 10 µM | > 30 µM | < 30 µM | > 10 µM | B
O=C1CCc2cc(-c3cn[nH]c3)ccc2N1Cc1ccc(C(O)(C(F)(F)F)C(F)(F)F)cc1 [Example 5, 1-(4-(1,1,1,3,3,3-hexafluoro-2-hydroxypropan-2-yl)benzyl)-6-(1H-pyrazol-4-yl)-3,4-dihydroquinolin-2(1H)-one] | > 30 µM | > 30 µM | > 30 µM | < 30 µM | < 10 µM | > 30 µM | < 30 µM | > 10 µM | A
Cc1n[nH]c(-c2ccc3c(c2)CCCN3Cc2ccc(C(O)(C(F)(F)F)C(F)(F)F)cc2)n1 [Example 3, 1,1,1,3,3,3-hexafluoro-2-(4-((6-(3-methyl-1H-1,2,4-triazol-5-yl)-3,4-dihydroquinolin-1(2H)-yl)methyl)phenyl)propan-2-ol] | > 30 µM | > 30 µM | < 30 µM | > 30 µM | < 10 µM | > 30 µM | < 30 µM | > 10 µM | B

Now from value to compound, other results behind:

EC50 (RORα LBD; [4]) | EC50 (RORα LBD; [5]) | EC50 (RORγ LBD [1]; [6]) | EC50 (RORγ LBD [1]; [7]) | IC50 (IL-17A) | EC50 (RORγ LBD [2]; [8]) | EC50 (RORγ LBD [2]; [9]) | IC50 (RORγ LBD [3]) | Compound | Fold change in mRNA levels of compound treated TH17 cells relative to DMSO treated cells, IL-21 (IL-21)
< 30 µM | < 30 µM | < 30 µM | < 30 µM | < 10 µM | > 30 µM | > 30 µM | > 10 µM | Cc1n[nH]c(-c2ccc3c(c2)CCC(=O)N3Cc2ccc(C(O)(C(F)(F)F)C(F)(F)F)cc2)n1 [Example 6, 1-(4-(1,1,1,3,3,3-hexafluoro-2-hydroxypropan-2-yl)benzyl)-6-(3-methyl-1H-1,2,4-triazol-5-yl)-3,4-dihydroquinolin-2(1H)-one] | A
> 30 µM | > 30 µM | > 30 µM | > 30 µM | < 10 µM | > 30 µM | < 30 µM | < 10 µM | Cc1cc(-c2ccc3c(c2)CCC(=O)N3Cc2ccc(C(O)(C(F)(F)F)C(F)(F)F)cc2)[nH]n1 [Example 4, 1-(4-(1,1,1,3,3,3-hexafluoro-2-hydroxypropan-2-yl)benzyl)-6-(3-methyl-1H-pyrazol-5-yl)-3,4-dihydroquinolin-2(1H)-one] | B
